Activity calls are given as the source filed them. No cut-off for these calls is given here.

For orientation: IC50 means the midpoint of a concentration-inhibition curve.

For data set [1], the target named is T1, 5-hydroxytryptamine receptor 2C (Homo sapiens, UniProt P28335).
T1 sequence (P28335 whole entry): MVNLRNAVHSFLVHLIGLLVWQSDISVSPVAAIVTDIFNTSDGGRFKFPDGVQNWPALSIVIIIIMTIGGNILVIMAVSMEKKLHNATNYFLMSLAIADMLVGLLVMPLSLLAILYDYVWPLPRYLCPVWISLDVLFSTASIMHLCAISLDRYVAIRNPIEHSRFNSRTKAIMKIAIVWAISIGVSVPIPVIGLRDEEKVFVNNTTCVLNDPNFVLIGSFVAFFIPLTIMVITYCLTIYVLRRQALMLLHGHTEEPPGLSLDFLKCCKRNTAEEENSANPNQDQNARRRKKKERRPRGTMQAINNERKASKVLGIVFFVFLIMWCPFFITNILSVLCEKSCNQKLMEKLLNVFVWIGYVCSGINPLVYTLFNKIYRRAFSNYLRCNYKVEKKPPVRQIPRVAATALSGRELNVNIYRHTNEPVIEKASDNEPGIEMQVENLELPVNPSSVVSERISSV
Put plainly: Displacement of [3H]mesulergine from human recombinant 5HT2C receptor expressed in CHO-K1 cells. Format: cell-based. Background: Loss of bound radioactivity is the signal in a displacement assay; it reports binding, not function.

Data set [2] deals with Mus musculus. Put plainly: Toxicity in mouse assessed as induction of hypoactivity measured for 30 mins at 25 mg/kg, ip measured by spontaneous locomotor activity assay. Format: organism-based. More on the design: dose 25 mg/kg, route intraperitoneal. The following applies: in vivo, 0.5 h.
Data set [3] deals with Sodium-dependent serotonin transporter (Homo sapiens, UniProt P31645). Put plainly: Displacement of [3H]imipramine from human recombinant SERT receptor expressed in HEK293 cells. In kind it is cell-based.
The target in data set [4] is 5-hydroxytryptamine receptor 2A (Homo sapiens, UniProt P28223). Put plainly: Displacement of [3H]ketanserin from human recombinant 5HT2A receptor expressed in CHO-K1 cells. In kind it is cell-based.
Data set [5] concerns Mus musculus. Put plainly: Toxicity in mouse assessed as induction of hyperactivity measured for 30 mins at 25 mg/kg, ip measured by spontaneous locomotor activity assay. Particulars: in vivo, 0.5 h. In kind it is organism-based. More on the design: dose 25 mg/kg, route intraperitoneal.
For data set [6], the system named is Mus musculus. Put plainly: Antidepressant activity in mouse at 25 mg/kg, ip administered 30 mins before test by forced swimming test. Format: functional, organism-based. More on the design: dose 25 mg/kg.
For data set [7], the target named is Voltage-gated inwardly rectifying potassium channel KCNH2 (Homo sapiens, UniProt Q12809). Put plainly: Inhibition of human ERG channel.
Another data set concerns the target Cytochrome P450 2D6 (Homo sapiens, UniProt P10635). Put plainly: Inhibition of CYP2D6. Format: ADME.
The target in a further data set is Cytochrome P450 2C9 (Homo sapiens, UniProt P11712). Put plainly: Inhibition of CYP2C9. In kind it is ADME.
For the next data set, the target named is Cytochrome P450 3A4 (Homo sapiens, UniProt P08684). Put plainly: Inhibition of CYP3A4. Format: ADME.
A further data set concerns the target T2, Cytochrome P450 1A2 (Homo sapiens, UniProt P05177).
T2 sequence (P05177 whole entry): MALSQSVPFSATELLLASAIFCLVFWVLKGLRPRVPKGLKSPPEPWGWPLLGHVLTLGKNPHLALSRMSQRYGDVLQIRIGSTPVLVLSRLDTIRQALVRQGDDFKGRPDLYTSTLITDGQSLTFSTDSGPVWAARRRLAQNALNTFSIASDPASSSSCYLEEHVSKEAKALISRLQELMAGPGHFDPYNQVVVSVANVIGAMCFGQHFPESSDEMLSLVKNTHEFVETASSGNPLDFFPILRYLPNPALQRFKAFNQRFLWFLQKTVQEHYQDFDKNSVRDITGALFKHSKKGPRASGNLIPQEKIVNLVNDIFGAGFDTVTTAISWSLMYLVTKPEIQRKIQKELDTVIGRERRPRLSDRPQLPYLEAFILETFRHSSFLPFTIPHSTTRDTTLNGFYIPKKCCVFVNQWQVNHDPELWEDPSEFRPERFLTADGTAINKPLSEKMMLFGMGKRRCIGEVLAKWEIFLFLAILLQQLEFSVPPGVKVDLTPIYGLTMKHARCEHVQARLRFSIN
Put plainly: Inhibition of CYP1A2. In kind it is ADME.

5-hydroxytryptamine receptor 2A, sequence (P28223 whole entry): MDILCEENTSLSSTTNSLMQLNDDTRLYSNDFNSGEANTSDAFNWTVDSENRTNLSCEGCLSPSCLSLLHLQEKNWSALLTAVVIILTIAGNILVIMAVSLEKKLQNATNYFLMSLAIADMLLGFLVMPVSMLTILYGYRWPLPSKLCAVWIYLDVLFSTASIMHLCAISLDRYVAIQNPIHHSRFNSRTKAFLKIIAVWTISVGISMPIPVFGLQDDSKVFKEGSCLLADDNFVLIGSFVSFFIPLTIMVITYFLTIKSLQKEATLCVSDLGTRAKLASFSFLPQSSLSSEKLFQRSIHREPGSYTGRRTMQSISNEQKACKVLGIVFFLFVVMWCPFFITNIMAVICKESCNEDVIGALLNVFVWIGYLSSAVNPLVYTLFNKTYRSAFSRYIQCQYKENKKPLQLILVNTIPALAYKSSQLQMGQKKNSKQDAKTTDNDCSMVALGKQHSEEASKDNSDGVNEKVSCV
Sodium-dependent serotonin transporter, sequence (P31645 whole entry): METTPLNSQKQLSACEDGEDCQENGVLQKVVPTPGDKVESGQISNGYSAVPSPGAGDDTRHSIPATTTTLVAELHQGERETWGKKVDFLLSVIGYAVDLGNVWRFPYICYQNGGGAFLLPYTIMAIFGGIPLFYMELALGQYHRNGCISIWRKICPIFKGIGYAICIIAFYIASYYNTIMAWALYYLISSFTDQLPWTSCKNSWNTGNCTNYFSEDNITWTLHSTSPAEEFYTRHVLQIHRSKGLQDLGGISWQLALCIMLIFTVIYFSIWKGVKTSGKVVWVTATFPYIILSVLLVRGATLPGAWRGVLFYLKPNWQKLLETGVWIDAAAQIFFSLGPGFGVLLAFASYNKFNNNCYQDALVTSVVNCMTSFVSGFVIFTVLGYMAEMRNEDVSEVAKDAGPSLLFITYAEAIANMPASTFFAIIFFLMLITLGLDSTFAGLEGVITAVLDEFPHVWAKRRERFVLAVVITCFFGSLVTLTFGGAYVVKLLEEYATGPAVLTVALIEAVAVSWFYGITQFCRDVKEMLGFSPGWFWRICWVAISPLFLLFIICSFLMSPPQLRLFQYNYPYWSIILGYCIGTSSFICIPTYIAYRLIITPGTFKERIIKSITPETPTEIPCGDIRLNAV
Voltage-gated inwardly rectifying potassium channel KCNH2, sequence (Q12809 whole entry): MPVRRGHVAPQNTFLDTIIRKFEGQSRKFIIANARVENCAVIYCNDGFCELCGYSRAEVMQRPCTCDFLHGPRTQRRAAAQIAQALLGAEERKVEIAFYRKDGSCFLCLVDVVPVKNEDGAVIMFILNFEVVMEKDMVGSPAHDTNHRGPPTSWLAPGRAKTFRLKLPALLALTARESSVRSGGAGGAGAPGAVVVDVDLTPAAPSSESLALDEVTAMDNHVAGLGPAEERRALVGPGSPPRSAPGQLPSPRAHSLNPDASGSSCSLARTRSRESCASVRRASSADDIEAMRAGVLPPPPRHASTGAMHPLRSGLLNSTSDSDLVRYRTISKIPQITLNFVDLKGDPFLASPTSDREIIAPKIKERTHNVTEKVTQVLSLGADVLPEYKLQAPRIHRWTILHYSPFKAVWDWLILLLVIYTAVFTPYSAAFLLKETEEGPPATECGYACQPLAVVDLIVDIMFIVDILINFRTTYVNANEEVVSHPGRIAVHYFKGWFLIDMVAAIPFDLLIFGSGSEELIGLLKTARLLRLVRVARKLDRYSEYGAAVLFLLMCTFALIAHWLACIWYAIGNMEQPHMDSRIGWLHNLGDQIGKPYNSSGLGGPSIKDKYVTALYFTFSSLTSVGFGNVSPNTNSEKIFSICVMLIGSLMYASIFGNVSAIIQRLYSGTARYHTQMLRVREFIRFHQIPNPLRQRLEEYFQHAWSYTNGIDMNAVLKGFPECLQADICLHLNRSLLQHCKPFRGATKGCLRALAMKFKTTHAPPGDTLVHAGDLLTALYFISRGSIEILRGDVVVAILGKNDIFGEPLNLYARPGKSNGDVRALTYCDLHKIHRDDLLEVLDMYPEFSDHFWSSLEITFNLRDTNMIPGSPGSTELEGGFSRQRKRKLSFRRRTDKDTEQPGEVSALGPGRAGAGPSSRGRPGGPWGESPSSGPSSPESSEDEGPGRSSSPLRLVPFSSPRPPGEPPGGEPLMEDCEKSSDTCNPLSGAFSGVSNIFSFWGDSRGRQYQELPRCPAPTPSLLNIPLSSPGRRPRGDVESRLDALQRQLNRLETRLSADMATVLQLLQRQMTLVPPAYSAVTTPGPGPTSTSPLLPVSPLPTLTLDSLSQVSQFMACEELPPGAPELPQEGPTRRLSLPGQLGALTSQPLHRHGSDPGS
Cytochrome P450 2D6, sequence (P10635 whole entry): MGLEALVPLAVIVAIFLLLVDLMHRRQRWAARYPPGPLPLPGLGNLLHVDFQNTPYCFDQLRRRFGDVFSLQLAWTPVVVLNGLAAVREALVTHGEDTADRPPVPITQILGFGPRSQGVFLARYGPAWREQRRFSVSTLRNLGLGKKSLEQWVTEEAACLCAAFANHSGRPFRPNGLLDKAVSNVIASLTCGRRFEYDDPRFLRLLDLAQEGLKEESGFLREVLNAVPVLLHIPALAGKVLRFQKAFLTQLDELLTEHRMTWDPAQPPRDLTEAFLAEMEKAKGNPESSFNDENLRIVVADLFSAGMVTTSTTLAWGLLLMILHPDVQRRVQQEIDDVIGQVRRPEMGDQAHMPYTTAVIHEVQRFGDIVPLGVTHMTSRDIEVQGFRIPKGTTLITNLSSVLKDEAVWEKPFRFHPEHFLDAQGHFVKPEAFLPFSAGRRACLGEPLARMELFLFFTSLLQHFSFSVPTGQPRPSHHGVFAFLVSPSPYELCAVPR
Cytochrome P450 2C9, sequence (P11712 whole entry): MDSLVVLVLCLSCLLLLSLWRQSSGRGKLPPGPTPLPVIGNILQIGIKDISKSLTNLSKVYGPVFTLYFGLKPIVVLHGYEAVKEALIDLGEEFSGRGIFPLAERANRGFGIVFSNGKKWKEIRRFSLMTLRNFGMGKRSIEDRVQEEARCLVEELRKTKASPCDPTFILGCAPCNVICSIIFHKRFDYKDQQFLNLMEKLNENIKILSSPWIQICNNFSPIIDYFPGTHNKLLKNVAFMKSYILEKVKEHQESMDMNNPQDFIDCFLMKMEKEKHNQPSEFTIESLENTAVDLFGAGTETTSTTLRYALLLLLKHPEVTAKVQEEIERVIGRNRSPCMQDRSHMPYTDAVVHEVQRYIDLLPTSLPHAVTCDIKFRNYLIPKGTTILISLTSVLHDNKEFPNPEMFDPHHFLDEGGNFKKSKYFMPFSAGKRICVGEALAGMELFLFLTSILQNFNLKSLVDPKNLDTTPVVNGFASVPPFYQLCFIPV
Cytochrome P450 3A4, sequence (P08684 whole entry): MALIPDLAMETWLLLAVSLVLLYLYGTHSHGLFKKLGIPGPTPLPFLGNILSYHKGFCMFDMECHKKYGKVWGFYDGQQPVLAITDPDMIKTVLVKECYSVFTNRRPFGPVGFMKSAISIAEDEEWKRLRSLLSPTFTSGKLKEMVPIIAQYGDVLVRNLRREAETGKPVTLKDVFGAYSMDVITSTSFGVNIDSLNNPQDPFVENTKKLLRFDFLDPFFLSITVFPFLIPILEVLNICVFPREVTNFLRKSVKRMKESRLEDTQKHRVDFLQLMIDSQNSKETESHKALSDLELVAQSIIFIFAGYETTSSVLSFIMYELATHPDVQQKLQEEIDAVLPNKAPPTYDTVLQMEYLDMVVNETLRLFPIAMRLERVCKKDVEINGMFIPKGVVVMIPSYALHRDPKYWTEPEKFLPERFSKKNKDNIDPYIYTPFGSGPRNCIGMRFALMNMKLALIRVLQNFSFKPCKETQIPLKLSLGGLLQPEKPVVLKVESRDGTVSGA

Regarding `COc1c(C)nc(C)nc1C(=O)NCCN1CCN(c2cccc(Cl)c2Cl)CC1.Cl`, the concentration for half-maximal inhibition (IC50) was 135 nM in [1], 646 nM in data set [3] and 263 nM in data set [4]. In addition, the Activity result in the data set on Mus musculus [2] and in the data set on Mus musculus [5] was “Non-toxic” throughout.

`COc1c(C)nc(C)nc1C(=O)NCCN1CCN(c2cccc(C)c2C)CC1.Cl`: the half-inhibitory concentration (IC50) in data set [1] is 1270 nM; in data set [3], 2100 nM; in data set [4] it was 842 nM. In addition, the Activity result with Mus musculus [2] and in the data set on Mus musculus [5] was “Non-toxic” each time.

On to `Cc1cc(C(=O)NCCCN2CCN(c3cccc(C)c3C)CC2)nc(C(C)(C)C)n1.Cl`, for which the IC50 in [1] was found to be 2690 nM; in [3], 537 nM; in [4], 274 nM. The Activity entry with Mus musculus [2] and in the data set on Mus musculus [5] was “Non-toxic” each time.

Take `Cc1cc(C(=O)NCCCN2CCN(c3cccc(Cl)c3Cl)CC2)nc(C)n1.Cl`: the values for the half-inhibitory concentration (IC50) in data set [1], in data set [3] and in data set [4] were 610 nM, 289 nM and 166 nM, respectively. The result in the data set with Mus musculus [6] was Active. Also, the Activity entry in the data set on Mus musculus [5] is listed as “Non-toxic”.

Regarding `Cc1cc(C(=O)NCCN2CCN(c3cccc(C)c3C)CC2)nc(C(C)(C)C)n1.Cl`, the results for the concentration for half-maximal inhibition (IC50) in [1], in data set [3] and in [4] were 494 nM, 6370 nM and 69 nM, respectively. The Activity entry in the data set with Mus musculus [2] and with Mus musculus [5] was “Non-toxic” in each case.

Turning to `Cc1nc(C(=O)NCCCN2CCN(c3cccc(Cl)c3Cl)CC2)cc(-c2ccccc2)n1`, the half-maximal inhibitory concentration (IC50) in [1] came to 30 nM; in data set [3] it was 588 nM; in [4], 35 nM.

On to `Cc1nc(C(=O)NCCCN2CCN(c3cccc(Cl)c3Cl)CC2)cc(C(C)C)n1.Cl`, for which the IC50 in data set [1] came to 227 nM; in [3], 644 nM; in [4] it was 113 nM; in data set [7], 5400 nM. Besides, the Activity entry in the data set with Mus musculus [2] and in the data set with Mus musculus [5] was “Non-toxic” each time. Besides, the result in the data set on Mus musculus [6] was Active.

Regarding `CSc1nc(C)cc(C(=O)NCCCN2CCN(c3cccc(C)c3C)CC2)n1.Cl`, the 50% inhibitory concentration (IC50) was found to be 1170 nM in data set [1], 394 nM in data set [3] and 54 nM in data set [4]. Moreover, the Activity entry in the data set on Mus musculus [2] and in the data set with Mus musculus [5] was “Non-toxic” each time. Moreover, the outcome with Mus musculus [6] was Active.

For the compound `Cc1nc(C(=O)NCCCN2CCN(c3cccc(C)c3C)CC2)cc(C(C)(C)C)n1.Cl`, the 50% inhibitory concentration (IC50) in [1] came out at 575 nM; in data set [3], 730 nM; in [4], 458 nM; in data set [7], 5900 nM. Further, the Activity result in the data set on Mus musculus [2] and in the data set with Mus musculus [5] was “Non-toxic” throughout.

As for `CSc1nc(C)cc(C(=O)NCCN2CCN(c3cccc(C)c3C)CC2)n1.Cl`, the IC50 in [1] is 148 nM; on Cytochrome P450 2D6 it was over 20000 nM; in [3] it was 1010 nM; in [4], 47 nM; against Cytochrome P450 2C9, over 20000 nM; on Cytochrome P450 3A4, over 20000 nM. At Cytochrome P450 1A2, this compound yielded a half-inhibitory concentration (IC50) of over 20000 nM. Also, the Activity entry in the data set on Mus musculus [2] and with Mus musculus [5] was “Non-toxic” throughout. For the same compound, in the data set on Mus musculus [6], the outcome was Active.

For `CSc1nc(C)cc(C(=O)NCCN2CCN(c3cccc(Cl)c3Cl)CC2)n1.Cl`, the values for the half-maximal inhibitory concentration (IC50) in [1], in [3] and in data set [4] were 81 nM, 881 nM and 55 nM, respectively. Also, the Activity entry in the data set on Mus musculus [2] and in the data set with Mus musculus [5] was “Non-toxic” each time. Also, the result with Mus musculus [6] was Active.

With `Cc1nc(C(=O)NCCCN2CCN(c3cccc(C)c3C)CC2)cc(C(C)C)n1.Cl`, the 50% inhibitory concentration (IC50) in data set [1] came out at 1550 nM; in data set [3], 1210 nM; in data set [4] it was 490 nM. Besides, the Activity entry with Mus musculus [2] and in the data set on Mus musculus [5] was “Non-toxic” each time.

Regarding `COc1c(C)nc(C)nc1C(=O)NCCCN1CCN(c2cccc(C)c2C)CC1.Cl`, the IC50 in data set [1] was found to be 2050 nM; in data set [3] it was 892 nM; in [4], 744 nM. Moreover, the Activity entry in the data set on Mus musculus [2] is “Toxic”.

In the case of `Cc1cc(C(=O)NCCCN2CCN(c3cccc(C)c3C)CC2)nc(C2CC2)n1.Cl`, the IC50 in data set [1] was 1180 nM; in data set [3], 347 nM; in data set [4], 256 nM. For the same compound, the Activity entry with Mus musculus [2] and in the data set on Mus musculus [5] was “Non-toxic” throughout.

The values are drawn from ChEMBL document CHEMBL1268978, “Arylpiperazine-containing pyrimidine 4-carboxamide derivatives targeting serotonin 5-HT(2A), 5-HT(2C), and the serotonin transporter as a potential antidepressant” (Bioorg Med Chem Lett, 2010).
